In ChEMBL document CHEMBL1201862, “PubChem BioAssay data set” (2004):
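Results reflect a 48-hour exposure of cells in 96-well plates to compound at five concentrations. GI50: concentration for 50% inhibition of growth.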 Activity calls are given as the source filed them. Rule as the data show it: active = GI50 up to about 1.1 µM and inactive = higher.

Columns and labels:
Experiment in all cases: growth of human tumour cells (NCI), 48 h
IGROV-1 = system: IGROV-1
BT-549 = system: BT-549
OVCAR-4 = system: OVCAR-4
COLO 205 = system: COLO 205
MDA-MB-435 = system: MDA-MB-435
NCI-H23 = system: NCI-H23
UACC-257 = system: UACC-257
PC-3 = system: PC-3
SF-295 = system: SF-295
HCT-15 = system: HCT-15
SK-MEL-28 = system: SK-MEL-28
SN12C = system: SN12C
A549 = system: A549
NCI/ADR-RES = system: NCI/ADR-RES
RXF 393 = system: RXF 393
786-0 = system: 786-0
OVCAR-5 = system: OVCAR-5
NCI-H226 = system: NCI-H226
NCI-H460 = system: NCI-H460
UO-31 = system: UO-31

| Structure (SMILES) | GI50 (IGROV-1) | GI50 (BT-549) | GI50 (OVCAR-4) | GI50 (COLO 205) | GI50 (MDA-MB-435) | GI50 (NCI-H23) | GI50 (UACC-257) | GI50 (PC-3) | GI50 (SF-295) | GI50 (HCT-15) [µM] | GI50 (SK-MEL-28) | GI50 (SN12C) | GI50 (A549) | GI50 (NCI/ADR-RES) | GI50 (RXF 393) | GI50 (786-0) | GI50 (OVCAR-5) | GI50 (NCI-H226) | GI50 (NCI-H460) | GI50 (UO-31) |
| --- | --- | --- | --- | --- | --- | --- | --- | --- | --- | --- | --- | --- | --- | --- | --- | --- | --- | --- | --- | --- |
| N#CC1(C#N)NC(c2cccnc2)C(C#N)(C#N)NC1c1cccnc1 (stereo not drawn) | > 100 µM (inactive) | > 100 µM (inactive) | > 100 µM (inactive) | > 100 µM (inactive) | > 100 µM (inactive) | > 100 µM (inactive) | > 100 µM (inactive) | > 100 µM (inactive) | > 100 µM (inactive) | > 100 | > 100 µM (inactive) | > 100 µM (inactive) | > 100 µM (inactive) | > 100 µM (inactive) | 28.1 µM (inactive) | > 100 µM (inactive) | > 100 µM (inactive) | > 100 µM (inactive) | – | – |
| Cc1nc(-c2cc3ccccc3oc2=O)cs1 | 17.1 µM (inactive) | 15.9 µM (inactive) | > 100 µM (inactive) | > 100 µM (inactive) | > 100 µM (inactive) | – | > 100 µM (inactive) | > 100 µM (inactive) | 35.5 µM (inactive) | > 100 | > 100 µM (inactive) | > 100 µM (inactive) | > 100 µM (inactive) | 78.5 µM (inactive) | 38.2 µM (inactive) | 34 µM (inactive) | > 100 µM (inactive) | 30.3 µM (inactive) | > 100 µM (inactive) | > 100 µM (inactive) |
| Cc1cc2nc3c(C#N)c4c(c(-c5ccc(Cl)cc5)n3c2cc1C)CCC4 | 18.4 µM (inactive) | 20.4 µM (inactive) | 38.5 µM (inactive) | 19.8 µM (inactive) | 22.5 µM (inactive) | 19.1 µM (inactive) | 21.4 µM (inactive) | 29.2 µM (inactive) | 17.2 µM (inactive) | 27.9 | 23.7 µM (inactive) | 30.3 µM (inactive) | 34.5 µM (inactive) | 41.1 µM (inactive) | 45 µM (inactive) | 19.4 µM (inactive) | – | 21.1 µM (inactive) | 43.2 µM (inactive) | 19.9 µM (inactive) |
| COc1cc(C2CC(C)(N3CCCC3)Oc3cc4c(cc32)OCO4)cc(OC)c1OC (stereo not drawn) | 0.31 µM (active) | 0.794 µM (active) | 19.5 µM (inactive) | 2.9 µM (inactive) | 0.0211 µM (active) | – | 0.13 µM (active) | 0.0889 µM (active) | 0.0762 µM (active) | 0.12 | 0.569 µM (active) | 0.288 µM (active) | 0.462 µM (active) | 0.582 µM (active) | 0.0908 µM (active) | 0.383 µM (active) | > 100 µM (inactive) | 4.69 µM (inactive) | 0.288 µM (active) | 0.624 µM (active) |
| FC(F)(F)c1ccc2c(c1)nc(-c1ccc(Cl)cc1)n2CC1CCCN2CCCCC12 (stereo not drawn) | 14.4 µM (inactive) | 14.4 µM (inactive) | 15.8 µM (inactive) | 11.6 µM (inactive) | 16.9 µM (inactive) | – | 14.9 µM (inactive) | 11.6 µM (inactive) | 16.7 µM (inactive) | 14.4 | 14.9 µM (inactive) | 12.9 µM (inactive) | 14.8 µM (inactive) | 14.8 µM (inactive) | 13.9 µM (inactive) | 13.8 µM (inactive) | 6.41 µM (inactive) | 14.8 µM (inactive) | 16.6 µM (inactive) | 10.7 µM (inactive) |
| O=C1N/C(=N/N=C/c2c[nH]c3ccccc23)N/C1=C\c1c[nH]c2ccccc12 | 19.1 µM (inactive) | 20.3 µM (inactive) | 26.9 µM (inactive) | 13.8 µM (inactive) | 24.5 µM (inactive) | 18.2 µM (inactive) | 28.5 µM (inactive) | 15.7 µM (inactive) | 21.4 µM (inactive) | 23 | 22.1 µM (inactive) | 34.9 µM (inactive) | 18.9 µM (inactive) | 27.3 µM (inactive) | 28.6 µM (inactive) | 17.8 µM (inactive) | 39.4 µM (inactive) | 17 µM (inactive) | 36.8 µM (inactive) | – |
